pIC50: −log10 of the molar value.
What was measured:
PDCs = assay: Apoptosis assay (annexin V/PI flow cytometry); type: cell-based, human; settings: 4 h, varying concentrations
Method: An apoptosis detection kit (KeyGEN BioTECH) was used for the PDC apoptosis assay. After treatment with different concentrations of GA-amide, cells were collected and resuspended in 100 µL of binding buffer with 1 µl FITC Annexin V and 1 µl PI for 15 min at room temperature in the dark. The cell suspensions were analyzed by flow cytometry within 1 h.

TrkA = target: T1, TrkA (Homo sapiens, UniProt P04629); assay: Western blot of TrkA phosphorylation in GSCs; type: cell-based; settings: GSC2 and U87MG-SLC cells, 4 hours
T1 construct: endogenous in cells; host or cells: GSC2 and U87MG-SLC glioma stem cells
Method: Proteins in the samples were separated on SDS–polyacrylamide gels and transferred to nitrocellulose membranes (Amersham, Sweden). After blocking with 5% skim milk, the membranes were incubated with the indicated primary antibodies listed in Supplementary Table 3 overnight. After washing with 1 × TBST three times, the membranes were incubated with secondary antibodies, and protein bands were detected by using ECL reagent.
Supplementary Fig. 5 TrkA was not the functional target for GA-amide to inhibit glioma. a Western blot analyses of the TrkA and p-TrkA expression in GSC2 and U87MG-SLC cells with GA-amide treatment for 4 hours. b Western blot analyses of the p-TrkA expression in GSC2 with GA-amide treatment for different times. c, d The combination effects of GA-amide with GW441756, a TrkA inhibitor, or with K252a, an inhibitor of Trk family in GSC2 (c) and U87MG-SLC (d) (48 hours, n = 3).

[1] = tested on: WDR1 deficient U87MG-SLC cells; assay: sgWDR1 U87MG-SLC subcutaneous xenograft; type: in vivo, nude mice; settings: 2 mg/kg i.p. once daily for 10 days
U251-SLC cells (GSC) = assay: IC50 assay (MTS cell viability); type: cell-based; settings: 48 h
Method: (§1) Four PDC lines (T12-1, T12-2, T2-4, T19-1) obtained from the Beijing Tiantan Hospital[53] and three GSC lines (GSC2, U87MG-SLC, U251-SLC) were established and verified in our previous work.[17] Two GCSC lines were kindly provided by Dr. Ran.[54] These cell lines were cultured in neurobasal medium (Gibco) containing 2% B27 (Gibco), 1% 100 × Antibiotic-Antimycotic (Gibco), 2 mmol/L L-glutamine (catalog SH30034.01, HyClone), 20 ng/mL bFGF (catalog 100-18B-50UG, PeproTech), 20 ng/mL EGF (catalog AF-100-15-100UG, PeproTech), and 10 μg/mL heparin (Sigma‒Aldrich). H1-NSCs obtained from D.Q. Pei’s laboratory (Guangzhou Institutes of Biomedicine and Health, Chinese Academy of Sciences, Guangzhou, China), were cultured in the same medium as the PDCs, with the addition of 1% N-2 supplement (Gibco, Thermo Fisher Scientific). The human astrocyte (HA) cell line was purchased from ScienCell and cultured in commercial astrocyte medium (catalog 1801, ScienCell) supplemented with 1% AGS (ScienCell), 2% FBS (ScienCell) and 1% P/S solution (ScienCell). Regarding the GC cell lines, U87MG cells were purchased from the American Type Culture Collection (ATCC), and U251 cells were purchased from the Cell Center of Peking Union Medical College. The GC cells were cultured in DMEM (Gibco) supplemented with 10% FBS (ScienCell) and 1% 100 × Antibiotic-Antimycotic.
(§2) Cells were seeded in 96-well plates and treated with 0, 0.03, 0.1, 0.3, 1, 3, 10, or 30 μM GA-amide (Santa Cruz) in triplicate. After 48 h of incubation, cell viability was quantified using the MTS assay, and the GA-amide cytotoxicity curve was estimated using GraphPad Prism.

U251 cells (GC) = assay: IC50 assay (MTS cell viability); type: cell-based; settings: Homo sapiens, U-251, 48 h
Method: as §1, §2

BGC-823-SLC cells (GCSC) = assay: IC50 assay (MTS cell viability); type: cell-based; settings: 48 h
Method: as §1, §2

[2] = tested on: HA (human astrocyte) cells; assay: IC50 assay (MTS cell viability); type: cell-based; settings: normal cells (NC), 48 h
Method: as §1, §2

SNU5-SLC cells (GCSC) = assay: IC50 assay (MTS cell viability); type: cell-based; settings: 48 h
Method: as §1, §2

H1P56NSC (H1-NSCs) = assay: IC50 assay (MTS cell viability); type: cell-based; settings: Homo sapiens, normal cells (NC), 48 h
Method: as §1, §2

U87MG-SLC cells (GSC) = assay: IC50 assay (MTS cell viability); type: cell-based; settings: 48 h
Method: as §1, §2

GSC2 cells (GSC) = assay: IC50 assay (MTS cell viability); type: cell-based; settings: 48 h
Method: as §1, §2

U87MG cells (GC) = assay: IC50 assay (MTS cell viability); type: cell-based; settings: Homo sapiens, U-87 MG, 48 h
Method: as §1, §2

T12-1 cells (PDC) = assay: IC50 assay (MTS cell viability); type: cell-based; settings: Homo sapiens, T12-1, PDC, 48 h
Method: as §1, §2

T19-1 cells (PDC) = assay: IC50 assay (MTS cell viability); type: cell-based; settings: Homo sapiens, T19-1, PDC, 48 h
Method: as §1, §2

[3] = tested on: glioma-related cells (PDCs, GCs and GSCs); assay: IC50 assay (MTS cell viability), span over cell lines; type: cell-based; settings: span over PDC, GC and GSC lines
Method: as §1, with “Regarding the GC cell lines, U87MG cells were purchased from the American Type Culture Collection (ATCC), and U251 cells were purchased from the Cell Center of Peking Union Medical College. The GC cells were cultured in DMEM (Gibco) supplemented with 10% FBS (ScienCell) and 1% 100 × Antibiotic-Antimycotic.” left out
as §2

T1 sequence (P04629 33-796): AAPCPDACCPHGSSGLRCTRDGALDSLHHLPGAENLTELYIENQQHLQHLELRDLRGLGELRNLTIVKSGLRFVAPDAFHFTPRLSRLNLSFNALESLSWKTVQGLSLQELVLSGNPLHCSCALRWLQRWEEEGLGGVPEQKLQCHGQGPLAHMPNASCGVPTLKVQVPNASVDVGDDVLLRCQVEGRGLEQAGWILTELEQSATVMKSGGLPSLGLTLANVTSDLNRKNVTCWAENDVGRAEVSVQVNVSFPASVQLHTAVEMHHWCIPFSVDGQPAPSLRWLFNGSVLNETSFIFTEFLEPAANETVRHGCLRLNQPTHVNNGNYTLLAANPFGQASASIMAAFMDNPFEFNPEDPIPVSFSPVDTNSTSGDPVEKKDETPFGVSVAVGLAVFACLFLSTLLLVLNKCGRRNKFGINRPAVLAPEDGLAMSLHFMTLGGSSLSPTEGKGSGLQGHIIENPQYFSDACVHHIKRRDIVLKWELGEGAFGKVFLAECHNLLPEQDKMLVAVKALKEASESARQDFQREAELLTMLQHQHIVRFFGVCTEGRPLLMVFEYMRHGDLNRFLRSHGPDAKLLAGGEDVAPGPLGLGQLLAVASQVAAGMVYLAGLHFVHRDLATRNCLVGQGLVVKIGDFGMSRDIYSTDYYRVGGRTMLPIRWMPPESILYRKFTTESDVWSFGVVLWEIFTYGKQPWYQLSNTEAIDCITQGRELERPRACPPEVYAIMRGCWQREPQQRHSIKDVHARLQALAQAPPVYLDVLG

Question: Which “apoptosis (annexin V/PI)” value (PDCs) does the source give for `CC(C)=CCC[C@]1(C)C=Cc2c(O)c3c(c(CC=C(C)C)c2O1)O[C@]12C(=C[C@@H]4CC1C(C)(C)O[C@@]2(C/C=C(/C)C(N)=O)C4=O)C3=O` [GA-amide, gambogic amide] here?
Answer: significantly induced the apoptosis of PDCs in a dose-dependent manner

Question: And the TrkA phosphorylation (TrkA)?
Answer: TrkA was phosphorylated at Y751 and Y490 in GSCs

Question: And the “tumor growth of WDR1 deficient xenograft” value [1]?
Answer: could not inhibit the tumor growth

Question: And the pIC50 (U251-SLC cells (GSC))?
Answer: 6.67

Question: And the pIC50 (U251 cells (GC))?
Answer: 6.77

Question: And the pIC50 (BGC-823-SLC cells (GCSC))?
Answer: 6.06

Question: And the pIC50 [2]?
Answer: 5.99

Question: And the pIC50 (SNU5-SLC cells (GCSC))?
Answer: 6.02

Question: What about the pIC50 (H1P56NSC (H1-NSCs)) of the same compound?
Answer: 6.03

Question: What about the pIC50 (U87MG-SLC cells (GSC)) of the same compound?
Answer: 6.40

Question: What about the pIC50 (GSC2 cells (GSC)) of the same compound?
Answer: 6.88

Question: What about the pIC50 (U87MG cells (GC)) of the same compound?
Answer: 6.64

Question: And the pIC50 (T12-1 cells (PDC))?
Answer: 6.60

Question: And the pIC50 (T19-1 cells (PDC))?
Answer: 6.56

Question: And the pIC50 [3]?
Answer: 6.40 to 6.88
